Experimental data reported in patent publication US10111900B2, “β-glucan methods and compositions that affect the tumor microenvironment” (Biothera, Inc., priority 2014, dated 2018).
Entries after “also recorded” stand apart in the source; their conditions may differ.

Experiments:
Assay type in all cases: cell-based, human
M1 macrophages = assay: Flow cytometry of M1/M2 markers on M1 macrophages derived from β-glucan-treated whole blood
Experimental: CD14^+ monocytes from human whole blood were enriched using Ficoll gradient and magnetic bead separation. […] T cell proliferation was measured at the end of the experiment (day 9-day 11) by flow cytometry, and results are graphically shown as CFSE-dilution peaks. […] Quantitative results were reported as the Division Index (the average number of cell divisions a population underwent) calculated for each of the triplicate wells in each of the culture conditions. […]
Expression of a panel of markers was evaluated by flow cytometry for vehicle- and β-glucan-treated, high binder-derived M1 and M2 macrophages (CD163 was evaluated twice).
CD163 and CD86 were evaluated by flow cytometry for vehicle- and β-glucan-treated, low binder-derived M1 and M2 macrophages.

CD4 T cells = assay: Mac-CD4 T cell proliferation assay (CFSE dilution)
IFN-γ = IFN-γ in supernatants of macrophage and CD4 T cell co-cultures (ELISA)
Experimental: CD14^+ monocytes from human whole blood were enriched using Ficoll gradient and magnetic bead separation. Enriched monocytes (5×10^5 cells per mL) were then cultured in either M1-polarizing (XVivo 10 media (Lonza Group) supplemented with 5% autologous serum and 100 ng/mL recombinant human granulocyte macrophage colony-stimulating factor (rhGM-CSF) (R&D Systems) or M2-polarizing (XVivo 10 media supplemented with 10% autologous serum and 50 ng/mL recombinant human macrophage colony-stimulating factor (rhM-CSF) (R&D Systems) conditions for 6 days. In experiments performed to evaluate the effect of β-glucan, whole blood was first incubated with vehicle (sodium citrate buffer) or 25 μg/mL soluble β-glucan for 2 hours at 37° C. and then the monocytes were isolated and differentiated. Morphology was checked before macrophages were harvested for phenotypic analysis. Culture medium of the day 6 macrophage culture (MCM) was collected, spun down to remove contaminated cell pellet and then frozen down for subsequent cytokine analysis by ELISA or used to setup a co-culture with CD3 & CD28-stimulated CD4 T cells (MCM-CD4 T) for evaluation of either surface markers or CD4 T cell proliferation. The macrophages were used to setup a co-culture with CD3 & CD28- or CD3 only-stimulated CD4 T cells (Mac-CD4 T) on day 6 for evaluation of either surface marker modulation or effect on CD4 T cell proliferation. For Mac-CD4 T cell proliferation study, M1 or M2 macrophages were cultured with CD3 & CD28- or CD3 only-stimulated, CFSE-labeled, autologous CD4 T cells at a 1:10 ratio. T cell proliferation was measured at the end of the experiment (day 9-day 11) by flow cytometry, and results are graphically shown as CFSE-dilution peaks. The assessment of CD3-only stimulated T cells was always done on day 11. Quantitative results were reported as the Division Index (the average number of cell divisions a population underwent) calculated for each of the triplicate wells in each of the culture conditions. Culture supernatants of Mac-CD4 T cell co-cultures were collected for subsequent cytokine analysis.
The culture supernatants from the CFSE dilution T-cell proliferation assay (FIG. 2B) were also measured for IFN-gamma levels by ELISA. […] Thus, β-glucan affects M2 to M1 repolarization and drives anti-tumorigenic Th1 polarization.
M2 macrophages from 4 high binders and 4 low binders were prepared and evaluated for their ability to modulate CD4 T cell proliferation. The supernatants from the various CD4 T cell proliferation conditions were measured for IFN-γ by ELISA. Results shown in FIG. 10 are representative from 4 different experiments. Fold change over the IFN-γ levels produced in the co-cultures of vehicle-treated M2 macrophages and CD4 T cells are plotted for each of the 4 donors.

Monocytes = assay: Binding of β-glucan to monocytes in whole blood (serum cross-over); settings: low binder's whole blood with high binder's serum (higher ABA)
Experimental: To test this, M2 macrophages were prepared as described above with a few modifications. The whole blood of a low binder was spun down to remove the plasma and then the cells were reconstituted with serum obtained from a high binder. The reconstituted blood was treated with vehicle or β-glucan (25 μg/mL) for 2 hours at 37° C. The monocytes were evaluated for binding by using anti-β-glucan specific monoclonal antibody and subsequent flow cytometry.

M2 macrophages = assay: Mac-CD4 T co-culture, surface marker modulation on macrophages; settings: relative to vehicle-treated M2 macrophages
Experimental: For evaluation of Mac-CD4 T cell surface marker modulation, M2 macrophages were co-cultured with T cells as described above and cells were harvested on day 8, day 9 and day 10 to perform surface receptor staining on both M2 macrophages and T cells.
Changes in surface marker expression on both macrophages and CD3 & CD28-stimulated T cells were also measured. Vehicle- and β-glucan-treated M2 macrophages and CD T cells from the co-cultures were evaluated by flow cytometry for the modulation of co-stimulatory or co-inhibitory molecules. FIG. 8C and Table 9 are representative results from 2 different experiments.

IL-4 = IL-4 in supernatants of macrophage and CD4 T cell co-cultures; settings: M2 macrophage and CD4 T cell co-cultures
Experimental: CD14^+ monocytes from human whole blood were enriched using Ficoll gradient and magnetic bead separation. Enriched monocytes (5×10^5 cells per mL) were then cultured in either M1-polarizing (XVivo 10 media (Lonza Group) supplemented with 5% autologous serum and 100 ng/mL recombinant human granulocyte macrophage colony-stimulating factor (rhGM-CSF) (R&D Systems) or M2-polarizing (XVivo 10 media supplemented with 10% autologous serum and 50 ng/mL recombinant human macrophage colony-stimulating factor (rhM-CSF) (R&D Systems) conditions for 6 days. In experiments performed to evaluate the effect of β-glucan, whole blood was first incubated with vehicle (sodium citrate buffer) or 25 μg/mL soluble β-glucan for 2 hours at 37° C. and then the monocytes were isolated and differentiated. Morphology was checked before macrophages were harvested for phenotypic analysis. […] T cell proliferation was measured at the end of the experiment (day 9-day 11) by flow cytometry, and results are graphically shown as CFSE-dilution peaks. […] Quantitative results were reported as the Division Index (the average number of cell divisions a population underwent) calculated for each of the triplicate wells in each of the culture conditions. […]
Modulation of IFN-γ and IL-4 production of vehicle- and β-glucan-treated M2 macrophages was then evaluated. […]

[1] = test system: M2 macrophages cultured in TCM; assay: Flow cytometry of markers on M2 macrophages cultured in tumor-conditioned medium (TCM)
Experimental: Phenotypic and functional evaluation of β-glucan-treated M2a and β-glucan-treated M2 macrophages in the presence of immunosuppressive cytokines was carried out. M2 or M2a macrophages were prepared as described above. On day 3, tumor-conditioned medium (TCM) was added M2 macrophage cultures to account for 70% of the volume of the culture and then evaluated for CD163 expression and functional activity on day 6. […] M2a macrophages were cultured in IL-4 as described above.
The β-glucan-treated M2a macrophages cultured in IL-4 and M2 macrophages cultured in TCM were first evaluated for CD163 and CD86 expression. CD163 and CD86 were evaluated by flow cytometry and median MFI was calculated for isotype control staining and surface antigen staining and the results are shown in Table 5.
Monocytes or M2 macrophages were prepared as described above. On day 3, TCM was added to account for 70% of the volume of the culture and then evaluated for PD-L1 expression with TCM and then again when co-cultured with CD4 T cells.

Substance: β(1,6)-[poly-(1,3)-D-glucopyranosyl]-poly-β(1,3)-D-glucopyranose [β-glucan]
- CD163 (2) median MFI (M1 macrophages; M1 macrophages, high binder): 230
- M1 macrophage phenotype (M1/M2-specific markers) (M1 macrophages; β-glucan pretreatment vs vehicle): did not affect
- CD4 T cell proliferation (CD4 T cells; M1 macrophages, high binders or low binders, vs vehicle): no differences
- CD4 T cell proliferation (CD4 T cells; M2 macrophages cultured in TCM and M2a macrophages cultured in IL-4, vs vehicle): maintained the ability to enhance
- CD4 T cell proliferation (CD4 T cells; M2 macrophages, absence of exogenous CD28 antibody (CD3 only)): significantly higher ability to enhance
- CD4 T cell proliferation (CD4 T cells; M2 macrophages, high binders, CD3 & CD28-stimulated, vs vehicle): significantly higher ability to enhance
- CD4 T cell proliferation (CD4 T cells; M2 macrophages, low binders, vs vehicle): neither enhanced CD4 T cell proliferation; also recorded: no enhanced proliferation
- CD4 T cell proliferation (CD4 T cells; co-culture with β-glucan-treated M2 macrophages, CD3 and CD28-stimulated): enhance CD4 T cell proliferation
- production of IFN-γ (IFN-γ; M2 in TCM / M2a in IL-4 co-cultured with CD4 T cells): significantly increased production
- production of IFN-γ (IFN-γ; M2 macrophage and CD4 T cell co-cultures, high binders): significantly increased production
- production of IFN-γ (IFN-γ; M2 macrophages and CD4 T cells, cell-to-cell contact study): significantly increased production
- production of IFN-γ (IFN-γ; low binder crossed-over with high binder's serum): significantly increased production
- IFN-gamma production (IFN-γ; supernatants of M2 macrophage and CD4 T cell co-culture): concomitant increase
- binding of β-glucan to monocytes (Monocytes): significantly higher binding
- Change in MFI on Macrophages: 4-1BBL (M2 macrophages): No change
- Change in MFI on Macrophages: CD40 (M2 macrophages): No change
- Change in MFI on Macrophages: CD80 (M2 macrophages): No change
- Change in MFI on Macrophages: CD172 (M2 macrophages): No change
- Change in MFI on Macrophages: CD209 (M2 macrophages): No change
- Change in MFI on Macrophages: OX40 (M2 macrophages): No change
- Change in MFI on Macrophages: HLA-DR (M2 macrophages; co-culture with CD3 & CD28-stimulated T cells): No change
- Change in MFI on Macrophages: CD86 (M2 macrophages; day 8): relative increase
- Change in MFI on Macrophages: PD-L1 (CD274) (M2 macrophages; day 9): relative increase
- production of IL-4 (IL-4): no change
- surface expression of PD-L1 ([1]; M2 macrophages cultured in the TCM): higher surface expression
- HLA-DR expression ([1]; M2 macrophages in TCM (data not shown)): higher HLA-DR expression
- expression of PD-L1 ([1]; M2 macrophages in TCM co-cultured with CD4 T cells): increased expression
- CD163 expression ([1]; β-glucan-treated monocytes cultured in TCM): marked down-regulation
